# Measured values from US4130647A, “Methods for treating congestive heart failure and ischemic heart disease” (priority 1977, dated 1978).
# Values joined by “and” are separate entries in the source; they are usually repeats but may differ in a detail not shown here. Equal entries are not always repeated.
# Columns and labels:
# clinical = details: human, po
# [1] = tested on: patients with congestive heart failure; assay: Dose-finding of oral trimazosin in congestive heart failure (Example 2); format: in vivo, human; details: for Change in Heart Rate at Peak / Change in Systolic Pressure at Peak / Time to Peak Effect: individual patients
# Protocol: (§1) Studies were performed in male patients with clinical and radiographic evidence of congestive heart failure due to ischemic or primary cardiomyopathy. To be eligible for the study patients had to have supine systolic blood pressure of at least 100 mm. Hg. and a supine resting cardiac index below 2.5 L/min./m^2, as measured by the non-invasive carbon dioxide rebreathing method [Franciosa, et al., J. Lab. Clin. Med., 88, 662 (1976) and Franciosa, et al., Circulation, 55, 449 (1977)]. Six patients met these criteria and were selected for the study.
# (§2) After obtaining written informed consent, patients were entered into a 2 day dose finding period during which single daily doses of trimazosin were given and blood pressure and heart rate monitored for 4 hours. On day one 100 mg. was given; if no response or side effects occurred, 200 mg. was given the next day. For purposes of this study a response was defined as a fall in supine blood pressure to a level equal to 0.2 × control systolic pressure +76 mm. Hg. This formula was arbitrarily chosen so that patients with control systolic blood pressure as low as 100 mm. Hg. would be included, and their pressures could be reduced to 96 mm. Hg. Upon completion to the dose finding period, no trimazosin was given for the next 24 hours to allow for washout of previous doses. After this, hemodynamic studies were performed employing the predetermined doses; if 200 mg. of trimazosin was ineffective, 300 mg. was given for hemodynamic studies.
# [2] = tested on: patients with congestive heart failure; assay: Hemodynamic effects of oral trimazosin in congestive heart failure (Example 2); format: in vivo, human
# Protocol: as §1, §2
# On the day of hemodynamic studies, diuretics and other vasodilators were withheld but maintenance digitalis doses were given in order to obtain a reasonably steady hemodynamic state. Procainamide was given to the one patient who had been taking it chronically. Right heart catheterization was performed using a triple lumen Swan-Ganz catheter which was inserted percutaneously via an antecubital or femoral vein and positioned with its tip in the pulmonary artery and the proximal lumen in the right atrium [Swan, et al,. N. Engl. J. Med., 283, 447 (1970)]. A brachial artery was cannulated with a short teflon catheter inserted over an 18-guage thin walled needle. Catheters were connected to P23Db Statham pressure transducers and pressures recorded on a Hewlett-Packard multichannel physiological recorder. Transducers were positioned at the mid-chest level with the patient supine, and all measurements were made in this position. Heart rate was monitored from the electrocardiogram. Cardiac outputs were measured by the dye-dilution method using indocyanine green injected into the pulmonary artery and sampled from the brachial artery through a Gilford densitometer connected to the recorder. Forearm venous capacitance was measured by occlusion plethysmography employing a Whitney mercury-in-rubber resistance guage [Cohen, et al., Clin. Sci., 30, 267 (1966) and Mason, et al., Circulation, 32, 756 (1965)]. For this determination, the forearm was elevated and suspended in a cradle. The venous occluding cuff was inflated to 30 mm. Hg. and forearm girth allowed to equilibrate over 2-3 minutes. The change in forearm girth at this point was taken as a measure of venous capacitance.
# Hemodynamic measurements were made before and at hourly intervals for 4 hours after administration of trimazosin. Pulmonary wedge pressure was taken as occluded pulmonary arterial pressure or pulmonary arterial diastolic pressure. These were not interchanged and only one was used in any given patient. Systemic vascular resistance was calculated as the difference between means systemic arterial and right atrial pressures divided by cardiac output. Pulmonary vascular resistance was calculated as mean pulmonary arterial pressure divided by cardiac output. […]
# norepinephrine = details: in vivo; cited from earlier work
# [3] = 200 mg. trimazosin oral, mean of 4, ns
# [4] = 200 mg. trimazosin, patient no. 4
# [5] = 2 hours after trimazosin, individual patients
smiles,measurement,setting,value
"COc1cc2c(N)nc(N3CCN(C(=O)OCC(C)(C)O)CC3)nc2c(OC)c1OC [trimazosin, 2-hydroxy-2-methylpropyl 4-(4-amino-6,7,8-trimethoxy-2-quinazolinyl)-1-piperazinecarboxylate]",half-life,clinical; in vivo,3 to 6 h
same,Tmax,clinical; plasma,1 to 2 h
same,Change in Heart Rate at Peak,[1]; 100 mg. trimazosin oral,-4 beats/min. and -2 beats/min. and -15 beats/min. and -10 beats/min.
same,Change in Systolic Pressure at Peak,[1]; 100 mg. trimazosin oral,-4 mm.Hg. and -22 mm.Hg. and -8 mm.Hg. and -16 mm.Hg. and -9 mm.Hg.
same,Time to Peak Effect,[1]; 100 mg. trimazosin oral,240 min and 120 min and 180 min and 90 min
same,"Time to Peak Effect, mean","[1]; 100 mg. trimazosin oral, mean of 6",155.0 min
same,"Change in Systolic Pressure at Peak, mean","[1]; 100 mg. trimazosin oral, mean of 6, P <0.02",-10.5 mm.Hg.
same,"Change in Heart Rate at Peak, mean","[1]; 100 mg. trimazosin oral, mean of 6, P <0.05",-6.5 beats/min.
same,desired hypotensive response,"[1]; 100 mg. trimazosin, of six patients",2 patients (nos. 5 and 6)
same,Change in Heart Rate at Peak,[1]; 200 mg. trimazosin oral,15 beats/min. and -3 beats/min. and 2 beats/min. and -1 beats/min.
same,Change in Systolic Pressure at Peak,[1]; 200 mg. trimazosin oral,-21 mm.Hg. and -20 mm.Hg. and -8 mm.Hg. and -1 mm.Hg.
same,Time to Peak Effect,[1]; 200 mg. trimazosin oral,240 min and 90 min and 210 min and 180 min
same,"Time to Peak Effect, mean","[1]; 200 mg. trimazosin oral, mean of 4",180.0 min
same,"Change in Heart Rate at Peak, mean",[1]; [3],3.3 beats/min.
same,"Change in Systolic Pressure at Peak, mean",[1]; [3],-12.5 mm.Hg.
same,systolic pressure lowered to the desired goal,"[1]; 200 mg. trimazosin, of four patients",2 patients (nos. 1 and 2)
same,desired reduction in systolic pressure and side effects,"[1]; 200 mg. trimazosin, patient no. 3",neither the desired reduction in systolic pressure nor side effects
same,side effect,[1]; [4],orthostatic light-headedness
same,supine systolic pressure,[1]; [4],essentially no fall
same,standing systolic pressure,"[1]; 200 mg. trimazosin, patient no. 4, fell from 103",91 mm. Hg.
same,"cardiac index, patients not responding",[2]; 2 hours after trimazosin,failed to increase in 2 patients
same,"pulmonary arterial pressures, patients responding",[2]; 2 hours after trimazosin,fell in every patient
same,Cardiac Index,[2]; [5],1.86 L/min./m^2 and 1.14 L/min./m^2 and 2.36 L/min./m^2 and 1.74 L/min./m^2 and 2.96 L/min./m^2 and 2.67 L/min./m^2
same,Mean Pulmonary Arterial Pressure,[2]; [5],15 mm.Hg. and 39 mm.Hg. and 29 mm.Hg. and 49 mm.Hg. and 31 mm.Hg. and 40 mm.Hg.
same,Mean Systemic Arterial Pressure,[2]; [5],82 mm.Hg. and 78 mm.Hg. and 88 mm.Hg. and 87 mm.Hg. and 73 mm.Hg.
same,Pulmonary Vascular Resistance,[2]; [5],4 units and 18 units and 6 units and 15 units and 8 units
same,Pulmonary Wedge Pressure,[2]; [5],3 mm.Hg. and 28 mm.Hg. and 23 mm.Hg. and 37 mm.Hg. and 18 mm.Hg. and 34 mm.Hg.
same,Systemic Vascular Resistance,[2]; [5],23 units and 31 units and 16 units and 24 units and 15 units and 12 units
same,"Heart Rate, mean","[2]; 2 hours after trimazosin, mean dose 183.3 mg., control 88.0, ns",85.0 beats/min.
same,right atrial pressure,"[2]; 2 hours after trimazosin, before 11.3 ± 2.1",8.7 ± 1.6 mm. Hg.
same,"Cardiac Index, mean","[2]; 2 hours after trimazosin, control 1.76, ns",2.12 L/min./m^2
same,"Pulmonary Vascular Resistance, mean","[2]; 2 hours after trimazosin, control 15.8, P <0.05",9.5 units
same,"Systemic Vascular Resistance, mean","[2]; 2 hours after trimazosin, control 27.3, ns",20.2 units
same,"Pulmonary Wedge Pressure, mean","[2]; 2 hours after trimazosin, control 30.7, P <0.01",23.8 mm.Hg.
same,"Mean Pulmonary Arterial Pressure, mean","[2]; 2 hours after trimazosin, control 40.7, P <0.01",33.8 mm.Hg.
same,"Mean Systemic Arterial Pressure, mean","[2]; 2 hours after trimazosin, control 91.2, P <0.05",82.5 mm.Hg.
same,pulmonary wedge pressure persistence,[2]; 4 hours after trimazosin,still significantly below control at 4 hours
same,Heart Rate,"[2]; T = 2 hours after trimazosin (100-300 mg.), individual patients",96 beats/min. and 84 beats/min. and 75 beats/min. and 81 beats/min. and 78 beats/min.
same,left ventricular function curve shift upward and leftward,[2]; after trimazosin,Only one patient failed to shift their left ventricular function curve upward and leftward
same,stroke volume,[2]; after trimazosin,stroke volume was increased
same,time of maximal increase of cardiac index,[2]; after trimazosin,1 h
same,time of maximal reduction of pulmonary wedge pressure,[2]; after trimazosin,2 h
same,time of peak decline of mean systemic arterial pressure,[2]; after trimazosin,1.5 h
same,time of peak effects of the various hemodynamic parameters,[2]; after trimazosin,1 to 3 h
same,diastolic pressure at peak effect,"[2]; after trimazosin, control 74.8 ± 4.2, ns",67.0 ± 2.9 mm. Hg.
same,systolic arterial pressure at peak effect,"[2]; after trimazosin, control 128.3, p<0.05",116.8 ± 9.2 mm. Hg.
same,heart rate change,[2]; following trimazosin,the decrease achieved statistical significance
same,"right atrial pressure and forearm veins, patients responding",[2]; following trimazosin,Right atrial pressure fell and forearm veins dilated in every patient
same,right atrial pressure,"[2]; one patient with normal pulmonary wedge pressure, fell from 5",3 mm. Hg.
same,tachycardia,[2]; patients with congestive heart failure,did not produce tachycardia
same,cardiac output,[2]; patients with normal control cardiac output or normal control pulmonary wedge pressure,appeared to reduce cardiac output
same,digital vascular reactivity to norepinephrine infusion,norepinephrine,decreased
same,norepinephrine uptake and secretion,norepinephrine,not affected
